Like-named read-outs stand apart in the source and are kept apart here.

This assay deals with T1, F508delCFTR (Homo sapiens, UniProt P13569, DEL508-508).
T1 construct: expressed in transfected cells; host or cells: CFBE41o- human lung-derived epithelial cells (CFBE4lo-F508delCFTR-HRP), doxycycline-inducible
As to the kind of experiment: Cell Surface Expression-Horse Radish Peroxidase (CSE-HRP) Assay.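 As to Maximum % activity (with co-corrector): co-corrector and positive control are both the same reference corrector at 2 µM.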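 As to Maximum % activity (without co-corrector): percent of the 2 µM on-plate positive control corrector response above DMSO.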 It is filed as cell-based. Conditions: for Emax / Maximum % activity (with co-corrector): maximum at any tested concentration, normalized to on-plate positive control; for Emax: read-out: Maximum % activity (without co-corrector).

Setting [1] is: test compound without co-corrector.
The mark [2] stands for this setting: test compound without co-corrector, read-out: EC50 (without co-corrector).
The mark [3] stands for this setting: with co-corrector (2 μM of 3-[(2R,4R)-4-({[1-(2,2-difluoro-1,3-benzodioxol-5-yl)cyclopropyl]carbonyl}amino)-7-methoxy-3,4-dihydro-2H-chromen-2-yl]benzoic acid).
[4] abbreviates: with co-corrector (2 μM of 3-[(2R,4R)-4-({[1-(2,2-difluoro-1,3-benzodioxol-5-yl)cyclopropyl]carbonyl}amino)-7-methoxy-3,4-dihydro-2H-chromen-2-yl]benzoic acid), read-out: EC50 (with co-corrector).

T1 sequence (P13569 with tags, fused parts or gaps DEL508-508): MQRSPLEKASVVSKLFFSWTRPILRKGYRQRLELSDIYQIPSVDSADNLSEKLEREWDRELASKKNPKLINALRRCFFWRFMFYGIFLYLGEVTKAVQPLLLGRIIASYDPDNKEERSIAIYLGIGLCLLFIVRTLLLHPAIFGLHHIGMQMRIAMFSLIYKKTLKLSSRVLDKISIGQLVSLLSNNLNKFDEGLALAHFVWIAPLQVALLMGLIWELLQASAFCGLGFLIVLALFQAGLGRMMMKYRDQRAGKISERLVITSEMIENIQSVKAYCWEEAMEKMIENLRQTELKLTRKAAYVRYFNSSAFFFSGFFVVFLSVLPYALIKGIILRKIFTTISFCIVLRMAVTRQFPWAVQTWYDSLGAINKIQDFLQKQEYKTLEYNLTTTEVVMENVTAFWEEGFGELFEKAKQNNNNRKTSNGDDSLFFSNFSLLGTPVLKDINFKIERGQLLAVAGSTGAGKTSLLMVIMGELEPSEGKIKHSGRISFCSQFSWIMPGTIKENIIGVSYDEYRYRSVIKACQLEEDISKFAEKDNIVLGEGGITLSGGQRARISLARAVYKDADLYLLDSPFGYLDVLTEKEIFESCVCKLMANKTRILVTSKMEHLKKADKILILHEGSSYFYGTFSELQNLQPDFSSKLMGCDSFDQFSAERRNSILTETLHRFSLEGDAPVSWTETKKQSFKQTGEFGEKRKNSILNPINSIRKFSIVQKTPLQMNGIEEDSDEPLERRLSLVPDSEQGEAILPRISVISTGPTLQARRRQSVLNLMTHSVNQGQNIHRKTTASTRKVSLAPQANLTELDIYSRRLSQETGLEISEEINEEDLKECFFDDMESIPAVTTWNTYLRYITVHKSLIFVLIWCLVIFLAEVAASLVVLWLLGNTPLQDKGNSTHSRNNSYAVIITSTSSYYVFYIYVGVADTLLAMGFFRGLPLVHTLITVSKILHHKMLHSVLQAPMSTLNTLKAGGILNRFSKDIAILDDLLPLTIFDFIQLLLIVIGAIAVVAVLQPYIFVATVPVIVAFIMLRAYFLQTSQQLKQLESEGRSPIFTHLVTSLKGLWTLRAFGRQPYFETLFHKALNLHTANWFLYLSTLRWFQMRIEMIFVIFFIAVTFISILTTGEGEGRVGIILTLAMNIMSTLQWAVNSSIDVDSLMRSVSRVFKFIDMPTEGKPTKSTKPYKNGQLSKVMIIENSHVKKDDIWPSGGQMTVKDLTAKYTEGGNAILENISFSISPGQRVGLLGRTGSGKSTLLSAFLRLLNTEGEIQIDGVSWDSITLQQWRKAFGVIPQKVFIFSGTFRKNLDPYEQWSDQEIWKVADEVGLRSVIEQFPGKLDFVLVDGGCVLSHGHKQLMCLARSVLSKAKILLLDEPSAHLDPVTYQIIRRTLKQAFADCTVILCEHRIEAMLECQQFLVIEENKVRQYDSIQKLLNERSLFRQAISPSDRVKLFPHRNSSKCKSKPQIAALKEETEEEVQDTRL

Take `COc1ccc(C(C)(C)C)cc1CN[C@H]1[C@H](C(C)(C)C)[C@@H](C(=O)O)N(C(=O)C2CCCC2)[C@H]1c1ccccc1` [II-332]: the Emax under setting [1] was > 200%. In addition, the EC50 by setting is: under setting [2], 1 to 10 µM; under setting [4], < 1 µM. Besides, the “Maximum % activity (with co-corrector)” value under setting [3] is “+++ (≥350)”.

Turning to `COc1ccc(C(C)(C)C)cc1CN[C@H]1[C@H](C(C)(C)C)[C@@H](C(=O)O)N(C(=O)C2CC2)[C@H]1c1ccccc1` [II-333], the Emax under setting [1] was > 200%. Further, the EC50 under setting [2] lay within 1 to 10 µM and the 50% effective concentration (EC50) under setting [4] was in the range of 1 to 10 µM. Besides, the “Maximum % activity (with co-corrector)” value under setting [3] is on record as “+++ (≥350)”.

Consider `COc1ccc(C(C)(C)C)cc1CN[C@H]1[C@H](C(C)(C)C)[C@@H](C(=O)O)N(C(=O)C2CCC(F)(F)C2)[C@H]1c1ccccc1` (stereo partly shown) [II-334], for which, under setting [1], the Emax is > 200%. For the same molecule, the EC50 runs as follows: under setting [2], 1 to 10 µM; under setting [4], 1 to 10 µM. In addition, the “Maximum % activity (with co-corrector)” value under setting [3] is on record as “+++ (≥350)”.

With `COc1ccc(C(C)(C)C)cc1CN[C@H]1[C@H](C(C)(C)C)[C@@H](C(=O)O)N(C(=O)C2CC(F)C2)[C@H]1c1ccccc1` (stereo partly shown) [II-335], the Emax under setting [1] was > 200%. Also, the EC50 reads like this: under setting [2], 1 to 10 µM; under setting [4], 1 to 10 µM. For the same molecule, the “Maximum % activity (with co-corrector)” value under setting [3] is on record as “+++ (≥350)”.

`COc1ccc(C(C)(C)C)cc1CN[C@H]1[C@H](C(C)(C)C)[C@@H](C(=O)O)N(C(=O)C2CC(F)(F)C2)[C@H]1c1ccccc1` [II-336]: the Emax under setting [1] was in the range of 100 to 200%. Further, the EC50 reads like this: under setting [2], 1 to 10 µM; under setting [4], 1 to 10 µM. In addition, under setting [3], the “Maximum % activity (with co-corrector)” value is listed as “+++ (≥350)”.

Consider `COc1ccc(C(C)(C)C)cc1CN[C@H]1[C@H](C(C)(C)C)[C@@H](C(=O)O)N(C(=O)C2CCc3ccccc32)[C@H]1c1ccccc1` (stereo partly shown) [II-337], for which the Emax under setting [1] was > 200%. The EC50 was < 1 µM under setting [2] and < 1 µM under setting [4]. Further, the “Maximum % activity (with co-corrector)” value under setting [3] was “+++ (≥350)”.

Regarding `COc1ccc(C2CCOCC2)cc1CN[C@H]1[C@H](C(C)(C)C)[C@@H](C(=O)O)N(C(=O)C2CCCCC2)[C@H]1c1ccccc1` [II-340], under setting [1], the Emax is 100 to 200%. For the same molecule, the EC50 reads like this: under setting [2], 1 to 10 µM; under setting [4], 1 to 10 µM. Moreover, under setting [3], the “Maximum % activity (with co-corrector)” value was “+++ (≥350)”.

Consider `COc1ncc(-c2ccccc2C)cc1CN[C@H]1[C@H](C(C)(C)C)[C@@H](C(=O)O)N(C(=O)C2CCCCC2)[C@H]1c1ccccc1` [II-342], for which the Emax under setting [1] was > 200%. The EC50 runs as follows: under setting [2], < 1 µM; under setting [4], < 1 µM. For the same molecule, the “Maximum % activity (with co-corrector)” value under setting [3] is recorded as “+++ (≥350)”.

Consider `COc1ncc(-c2ccc(F)cc2C)cc1CN[C@H]1[C@H](C(C)(C)C)[C@@H](C(=O)O)N(C(=O)C2CCCCC2)[C@H]1c1ccccc1` [II-343], for which the Emax under setting [1] lay in the range of 100 to 200%. The EC50 is, setting by setting: under setting [2], < 1 µM; under setting [4], < 1 µM. In addition, the “Maximum % activity (with co-corrector)” value under setting [3] is recorded as “+++ (≥350)”.

Take `COc1ncc(-c2ccc(F)cc2F)cc1CN[C@H]1[C@H](C(C)(C)C)[C@@H](C(=O)O)N(C(=O)C2CCCCC2)[C@H]1c1ccccc1` [II-344]: the Emax under setting [1] is 100 to 200%. For the same molecule, the EC50 by setting is: under setting [2], 1 to 10 µM; under setting [4], < 1 µM. Further, under setting [3], the “Maximum % activity (with co-corrector)” value is “+++ (≥350)”.

With `COc1ncc(-c2cccnc2)cc1CN[C@H]1[C@H](C(C)(C)C)[C@@H](C(=O)O)N(C(=O)C2CCCCC2)[C@H]1c1ccccc1` [II-345], the Emax under setting [1] was < 100%. Moreover, the 50% effective concentration (EC50) lay in the range of 1 to 10 µM under setting [2] and 1 to 10 µM under setting [4]. Moreover, the “Maximum % activity (with co-corrector)” value under setting [3] is “+++ (≥350)”.

For the molecule `COc1ncc(-c2cccc(F)c2F)cc1CN[C@H]1[C@H](C(C)(C)C)[C@@H](C(=O)O)N(C(=O)C2CCCCC2)[C@H]1c1ccccc1` [II-346], the Emax under setting [1] is > 200%. The half-maximal effective concentration (EC50) by setting is: under setting [2], 1 to 10 µM; under setting [4], 1 to 10 µM. Besides, under setting [3], the “Maximum % activity (with co-corrector)” value was “+++ (≥350)”.

`COc1ncc(-c2ccc(C)cc2)cc1CN[C@H]1[C@H](C(C)(C)C)[C@@H](C(=O)O)N(C(=O)C2CCCCC2)[C@H]1c1ccccc1` [II-347]: the Emax under setting [1] lay in the range of 100 to 200%. Besides, the EC50 under setting [2] is < 1 µM and the EC50 under setting [4] was < 1 µM. Further, under setting [3], the “Maximum % activity (with co-corrector)” value is reported as “+++ (≥350)”.

As to `COc1ncc(-c2cccnc2C)cc1CN[C@H]1[C@H](C(C)(C)C)[C@@H](C(=O)O)N(C(=O)C2CCCCC2)[C@H]1c1ccccc1` [II-348], the Emax under setting [1] was < 100%. Moreover, the EC50 was 1 to 10 µM under setting [2] and 1 to 10 µM under setting [4]. In addition, the “Maximum % activity (with co-corrector)” value under setting [3] was “+++ (≥350)”.

`COc1ncc(C2=CCOCC2)cc1CN[C@H]1[C@H](C(C)(C)C)[C@@H](C(=O)O)N(C(=O)C2CCCCC2)[C@H]1c1ccccc1` [II-349]: the Emax under setting [1] is < 100%. For the same molecule, the EC50 reads like this: under setting [2], 1 to 10 µM; under setting [4], 1 to 10 µM. The “Maximum % activity (with co-corrector)” value under setting [3] is listed as “+++ (≥350)”.

As for `COc1ncc(C2=CCOC2)cc1CN[C@H]1[C@H](C(C)(C)C)[C@@H](C(=O)O)N(C(=O)C2CCCCC2)[C@H]1c1ccccc1` [II-350], the Emax under setting [1] was in the range of 100 to 200%. Moreover, the concentration giving a half-maximal response (EC50) reads like this: under setting [2], 1 to 10 µM; under setting [4], 1 to 10 µM. For the same molecule, the “Maximum % activity (with co-corrector)” value under setting [3] is “+++ (≥350)”.

On to `COc1ncc(C(C)(C)C)cc1CN[C@H]1[C@H](C(C)(C)C)[C@@H](C(=O)O)N(C(=O)C2CCCCC2)[C@H]1c1ccccc1F` [II-351], for which, under setting [1], the Emax is 100 to 200%. For the same molecule, the 50% effective concentration (EC50) under setting [2] is < 1 µM and the 50% effective concentration (EC50) under setting [4] was < 1 µM. The “Maximum % activity (with co-corrector)” value under setting [3] is “+++ (≥350)”.

Regarding `COc1ccc(C2CC2)cc1CN[C@H]1[C@H](C(C)(C)C)[C@@H](C(=O)O)N(C(=O)C2CCCCC2)[C@H]1c1ccccc1` [II-352], the Emax under setting [1] was > 200%. For the same molecule, the EC50 under setting [2] lay in the range of 1 to 10 µM and the 50% effective concentration (EC50) under setting [4] is < 1 µM. The “Maximum % activity (with co-corrector)” value under setting [3] is given as “+++ (≥350)”.

As for `COc1ccc(C2(C(F)(F)F)CC2)cc1CN[C@H]1[C@H](C(C)(C)C)[C@@H](C(=O)O)N(C(=O)C2CCCCC2)[C@H]1c1ccccc1F` [II-353], under setting [1], the Emax is > 200%. Also, the EC50 reads like this: under setting [2], 1 to 10 µM; under setting [4], < 1 µM. In addition, under setting [3], the “Maximum % activity (with co-corrector)” value is given as “+++ (≥350)”.

With `COc1ccc(C(C)(C)C)cc1CN[C@H]1[C@H](C(C)(C)C)[C@@H](C(=O)O)N(C(=O)c2cnn(-c3ccc(F)cc3)c2C)[C@H]1c1ccccc1` [II-354], under setting [1], the Emax was > 200%. For the same molecule, the EC50 is, setting by setting: under setting [2], < 1 µM; under setting [4], < 1 µM. For the same molecule, the “Maximum % activity (with co-corrector)” value under setting [3] is “+++ (≥350)”.

With `COc1ccc(C(C)(C)C)cc1CN[C@H]1[C@H](C(C)(C)C)[C@@H](C(=O)O)N(C(=O)c2cnn(C(C)(C)C)c2C#N)[C@H]1c1ccccc1` [II-355], the Emax under setting [1] was 100 to 200%. Further, the concentration for a half-maximal effect (EC50) reads like this: under setting [2], 1 to 10 µM; under setting [4], < 1 µM. Under setting [3], the “Maximum % activity (with co-corrector)” value is recorded as “+++ (≥350)”.

For `COc1ccc(C(C)(C)C)cc1CN[C@H]1[C@H](C(C)(C)C)[C@@H](C(=O)O)N(C(=O)c2cnn(-c3ccc(F)cc3F)c2C)[C@H]1c1ccccc1` [II-356], the Emax under setting [1] was > 200%. Further, the EC50 is, setting by setting: under setting [2], 1 to 10 µM; under setting [4], < 1 µM. Moreover, under setting [3], the “Maximum % activity (with co-corrector)” value is reported as “+++ (≥350)”.

These data come from patent publication US20180099931A1 (AbbVie S.à.r.l., priority 2016, published 2018).
